Results on 34 compounds are retold here after patent US8106055B2, “Substituted amide compounds” (Gruenenthal GmbH, priority 2007, dated 2012).

Usually inhibition stands for the drop in the measured response relative to a control, in per cent.

In the first experiment the target is T1, human bradykinin 1 receptor (B1R) (Homo sapiens, UniProt P46663).
T1 construct: expressed in transfected cells; host or cells: CHO K1 cells
T1 sequence (P46663 1-353): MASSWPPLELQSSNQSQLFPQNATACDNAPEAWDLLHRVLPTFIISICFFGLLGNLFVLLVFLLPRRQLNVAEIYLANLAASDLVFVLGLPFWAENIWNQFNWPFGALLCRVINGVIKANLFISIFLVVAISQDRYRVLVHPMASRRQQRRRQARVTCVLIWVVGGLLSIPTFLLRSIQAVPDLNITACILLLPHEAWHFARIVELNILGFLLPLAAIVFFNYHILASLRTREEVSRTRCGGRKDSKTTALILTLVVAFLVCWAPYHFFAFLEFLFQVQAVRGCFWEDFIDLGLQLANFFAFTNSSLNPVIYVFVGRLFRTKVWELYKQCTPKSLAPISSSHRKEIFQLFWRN
The experiment can be described thus: Functional investigation on the human bradykinin 1 receptor (B1R), Ca2+ FLIPR assay in CHO K1 hB1R cells. The settings on record: B1R antagonism human; test substance 10 μM; Ca2+ FLIPR, CHO K1 hB1R cells. It is filed as cell-based. In short, it runs like this:
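Fluo-4 Ca2+ readout, peak fluorescence. Stable CHO K1 transfectants; compound pre-incubated 10-20 min, then EC80 agonist—Lys-Des-Arg9-BK for hB1R, Des-Arg9-BK for rB1R. % inhibition vs maximal inhibition; IC50 from multiple concentrations, duplicate/triplicate, ≥2 independent runs.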
In the case of `CN(C)C(CCc1ccccc1)C1CCC(CNC(=O)COCCN(C)S(=O)(=O)c2cccc(C(F)(F)F)c2)CC1` (stereo not shown) [Example 556], the “B1R Ant. h [10 μM] % Inhibition” value is on record as 82%.

On to `COc1cc(C)c(S(=O)(=O)N2CCC(OCC(=O)NCC3CCC(C(CCc4ccccc4)N(C)C)CC3)C2)c(C)c1` (stereo not shown) [Example 565], for which the “B1R Ant. h [10 μM] % Inhibition” value stood at 102%.

As for `CN(C)C(c1ccc(F)cc1)C1CCC(CCNC(=O)COCCN(C)S(=O)(=O)c2ccc(Cl)cc2Cl)CC1` (stereo not shown) [Example 586], the “B1R Ant. h [10 μM] % Inhibition” value is given as 95%.

Consider `CN(C)C(c1ccc(F)cc1)C1CCC(CCNC(=O)COC2CCN(S(=O)(=O)c3ccccc3)CC2)CC1` (stereo not shown) [Example 553], for which the “B1R Ant. h [10 μM] % Inhibition” value is reported as −21%.

For the compound `CN(C)C(CCc1ccccc1)C1CCC(CNC(=O)COC2CCN(S(=O)(=O)c3ccc(F)cc3)C2)CC1` (stereo not shown) [Example 574], the “B1R Ant. h [10 μM] % Inhibition” value is 2%.

For `CN(C)C(c1ccc(F)cc1)C1CCC(CNC(=O)COC2CCN(S(=O)(=O)c3ccccc3)CC2)CC1` (stereo not shown) [Example 568], the “B1R Ant. h [10 μM] % Inhibition” value is −20%.

As for `COc1ccc(S(=O)(=O)N2CCCCC2COCC(=O)NCC2CCC(C(CCc3ccccc3)N(C)C)CC2)cc1OC` (stereo not shown) [Example 570], the “B1R Ant. h [10 μM] % Inhibition” value was −18%.

Take `COc1ccc(S(=O)(=O)N2CCCCC2COCC(=O)NCC2CCC(C(CCc3ccccc3)N(C)C)CC2)c(OC)c1` (stereo not shown) [Example 486]: the “B1R Ant. h [10 μM] % Inhibition” value was 28%.

In the case of `Cc1cc(C)c(S(=O)(=O)N(C)CCOCC(=O)NC2CCC(C(c3ccccc3)N(C)C)CC2)c(C)c1` (stereo not shown) [Example 63, N-(4-((dimethylamino)(phenyl)methyl)cyclohexyl)-2-(2-(N,2,4,6-tetramethylphenylsulfamido)ethoxy)acetamide], the “B1R Ant. h [10 μM] % Inhibition” value is listed as 92%.

Regarding `COc1ccc(S(=O)(=O)N2CCCCC2COCC(=O)NCCC2CCC(C(c3cccc(F)c3)N(C)C)CC2)cc1OC` (stereo not shown) [Example 581], the “B1R Ant. h [10 μM] % Inhibition” value came out at 2%.

For `COc1cc(C)c(S(=O)(=O)N(CCOCC(=O)NCCC2CCC(C(c3ccc(Cl)cc3)N(C)C)CC2)Cc2ccccc2)c(C)c1` (stereo not shown) [Example 569], the “B1R Ant. h [10 μM] % Inhibition” value came to 14%.

In the case of `COc1cc(C)c(S(=O)(=O)N(CCOCC(=O)NCCC2CCC(C(c3ccc(F)cc3)N(C)C)CC2)Cc2ccccc2)c(C)c1` (stereo not shown) [Example 547], the “B1R Ant. h [10 μM] % Inhibition” value is listed as 76%.

Take `COc1cc(C)c(S(=O)(=O)N2CCC(OCC(=O)NCC3CCC(C(CCc4ccccc4)N(C)C)CC3)CC2)c(C)c1C` (stereo not shown) [Example 546]: the “B1R Ant. h [10 μM] % Inhibition” value is given as 34%.

Turning to `COc1ccc(S(=O)(=O)N2CCC(OCC(=O)NCC3CCC(C(CCc4ccccc4)N(C)C)CC3)C2)cc1OC` (stereo not shown) [Example 566], the “B1R Ant. h [10 μM] % Inhibition” value was found to be 1%.

`COc1ccc(S(=O)(=O)N2CCCC2COCC(=O)NCC2CCC(C(CCc3ccccc3)N(C)C)CC2)cc1` (stereo not shown) [Example 572]: the “B1R Ant. h [10 μM] % Inhibition” value is 50%.

On to `COc1ccc(S(=O)(=O)N(C)CCOCC(=O)NCC2CCC(C(CCc3ccccc3)N(C)C)CC2)cc1OC` (stereo not shown) [Example 571], for which the “B1R Ant. h [10 μM] % Inhibition” value is recorded as −10%.

Regarding `COc1cc(C)c(S(=O)(=O)N2CCC(CCOCC(=O)NCCC3CCC(C(c4ccc(Cl)cc4)N(C)C)CC3)CC2)c(C)c1C` (stereo not shown) [Example 561], the “B1R Ant. h [10 μM] % Inhibition” value is recorded as −1%.

The experiment is the same for the next values; noted with them: CHO-K1, B1R antagonism human; test substance 10 μM; Ca2+ FLIPR, CHO K1 hB1R cells; read-out: B1R Ant. h [10 μM] % Inhibition.
Take `COc1ccc(S(=O)(=O)N2CCCCC2COCC(=O)NCC2CCC(C(c3ccccc3)N(C)C)CC2)c(OC)c1` (stereo not shown) [Example 106, 2-((1-(2,4-dimethoxyphenylsulfonyl)piperidin-2-yl)methoxy)-N-((4-((dimethylamino)(phenyl)methyl)cyclohexyl)methyl)acetamide]: the inhibition at 10 µM stood at 4%.

On to `CN(C)C(c1ccccc1)C1CCC(CNC(=O)COC2CCCN(S(=O)(=O)c3ccccc3)C2)CC1` (stereo not shown) [Example 114, N-((4-((dimethylamino)(phenyl)methyl)cyclohexyl)methyl)-2-(1-(phenylsulfonyl)piperidin-3-yloxy)acetamide], for which the inhibition at 10 µM is -17%.

As to `CCN(CCOCC(=O)NCC1CCC(C(c2cccc(F)c2)N(C)C)CC1)S(=O)(=O)c1c(C)cc(OC)c(C)c1C` (stereo not shown) [Example 117, N-((4-((dimethylamino)(3-fluorophenyl)methyl)cyclohexyl)methyl)-2-(2-(N-ethyl-4-methoxy-2,3,6-trimethylphenylsulfonamido)ethoxy)acetamide], the inhibition at 10 µM is 76%.

As to `CN(C)C(c1ccccc1)C1CCC(NC(=O)COCCN(C)S(=O)(=O)c2c(Cl)cccc2Cl)CC1` (stereo not shown) [Example 135, 2-(2-(2,6-dichloro-N-methylphenylsulfonamido)ethoxy)-N-(4-((dimethylamino)(phenyl)methyl)cyclohexyl)acetamide], the inhibition at 10 µM was 79%.

As to `CN(C)C(c1cccs1)C1CCC(CNC(=O)COCC2CCCN(S(=O)(=O)c3ccccc3)C2)CC1` (stereo not shown) [Example 101, N-((4-((dimethylamino)(thiophen-2-yl)methyl)cyclohexyl)methyl)-2-((1-(phenylsulfonyl)piperidin-3-yl)methoxy)acetamide], the inhibition at 10 µM was 0%.

`COc1cc(C)c(S(=O)(=O)N2CCC(OCC(=O)NCC3CCC(C(c4cccs4)N(C)C)CC3)CC2)c(C)c1C` (stereo not shown) [Example 104, N-((4-((dimethylamino)(thiophen-2-yl)methyl)cyclohexyl)methyl)-2-(1-(4-methoxy-2,3,6-trimethylphenylsulfonyl)piperidin-4-yloxy)acetamide]: the inhibition at 10 µM was determined as 24%.

As for `CN(C)C(c1ccccc1)C1CCC(CNC(=O)COC2CCN(S(=O)(=O)c3cccc(C(F)(F)F)c3)C2)CC1` (stereo not shown) [Example 113, N-((4-((dimethylamino)(phenyl)methyl)cyclohexyl)methyl)-2-(1-(3-(trifluoromethyl)phenylsulfonyl)pyrrolidin-3-yloxy)acetamide], the inhibition at 10 µM was -1%.

`CN(C)C(c1cccs1)C1CCC(CCNC(=O)COCCN(Cc2ccccc2)S(=O)(=O)c2ccccc2)CC1` (stereo not shown) [Example 116, 2-(2-(N-benzylphenylsulfonamido)ethoxy)-N-(2-(4-((dimethylamino)(thiophen-2-yl)methyl)cyclohexyl)ethyl)acetamide]: the inhibition at 10 µM was 28%.

As to `COc1ccc(S(=O)(=O)N2CCCCC2COCC(=O)NCC2CCC(C(c3cccs3)N(C)C)CC2)cc1OC` (stereo not shown) [Example 133, 2-((1-(3,4-Dimethoxyphenylsulfonyl)piperidin-2-yl)methoxy)-N-((4-((dimethylamino)(thiophen-2-yl)methyl)cyclohexyl)methyl)acetamide], the inhibition at 10 µM is -23%.

Take `COc1ccc(S(=O)(=O)N(C)CCOCC(=O)NCCC2CCC(C(c3cccs3)N(C)C)CC2)cc1` (stereo not shown) [Example 128, N-(2-(4-((dimethylamino)(thiophen-2-yl)methyl)cyclohexyl)ethyl)-2-(2-(4-methoxy-N-methylphenylsulfonamido)ethoxy)acetamide]: the inhibition at 10 µM turned out to be 28%.

Consider `COc1cc(C)c(S(=O)(=O)N2CCC(CCOCC(=O)NCC3CCC(C(c4cccs4)N(C)C)CC3)CC2)c(C)c1C` (stereo not shown) [Example 131, N-((4-((dimethylamino)(thiophen-2-yl)methyl)cyclohexyl)methyl)-2-(2-(1-(4-methoxy-2,3,6-trimethylphenylsulfonyl)piperidin-4-yl)ethoxy)acetamide], for which the inhibition at 10 µM came to 15%.

In the case of `Cc1ccc(S(=O)(=O)N2CCC(OCC(=O)NCC3CCC(C(c4ccccc4)N(C)C)CC3)C2)cc1` (stereo not shown) [Example 125, N-((4-((dimethylamino)(phenyl)methyl)cyclohexyl)methyl)-2-(1-tosylpyrrolidin-3-yloxy)acetamide], the inhibition at 10 µM worked out at 26%.

As for `COc1ccc(S(=O)(=O)N2CCCCC2COCC(=O)NCCC2CCC(C(c3cccs3)N(C)C)CC2)c(OC)c1` (stereo not shown) [Example 107, 2-((1-(2,4-dimethoxyphenylsulfonyl)piperidin-2-yl)methoxy)-N-(2-(4-((dimethylamino)(thiophen-2-yl)methyl)cyclohexyl)ethyl)acetamide], the inhibition at 10 µM was -4%.

As to `CN(C)C(c1cccs1)C1CCC(CCNC(=O)COC2CCCN(S(=O)(=O)c3ccccc3)C2)CC1` (stereo not shown) [Example 100, N-(2-(4-((dimethylamino)(thiophen-2-yl)methyl)cyclohexyl)ethyl)-2-(1-(phenylsulfonyl)piperidin-3-yloxy)acetamide], the inhibition at 10 µM was -3%.

Turning to `COc1cc(C)c(S(=O)(=O)N2CCC(CCOCC(=O)NC3CCC(C(c4cccc(F)c4)N(C)C)CC3)CC2)c(C)c1C` (stereo not shown) [Example 118, N-(4-((dimethylamino)(3-fluorophenyl)methyl)cyclohexyl)-2-(2-(1-(4-methoxy-2,3,6-trimethylphenylsulfonyl)piperidin-4-yl)ethoxy)acetamide], the inhibition at 10 µM is 23%.

As for `COc1cc(C)c(S(=O)(=O)N(C)CCOCC(=O)NC2CCC(C(c3cccs3)N(C)C)CC2)c(C)c1` (stereo not shown) [Example 111, N-(4-((dimethylamino)(thiophen-2-yl)methyl)cyclohexyl)-2-(2-(4-methoxy-N,2,6-trimethylphenylsulfonamido)ethoxy)acetamide], the inhibition at 10 µM stood at 102%.

As to `CN(C)C(c1cccc(F)c1)C1CCC(CNC(=O)COCC2CCCN2S(=O)(=O)c2ccc(Cl)c(Cl)c2)CC1` (stereo not shown) [Example 119, 2-((1-(3,4-dichlorophenylsulfonyl)pyrrolidin-2-yl)methoxy)-N-((4-((dimethylamino)(3-fluorophenyl)methyl)cyclohexyl)methyl)acetamide], the inhibition at 10 µM stood at 67%.
